Target: T1, PP2A (Bos taurus, UniProt P67774)
T1 construct: gene PPP2CA
Test: colorimetric pNPP phosphatase assay with purified enzyme, […] min pre-incubation
Format: biochemical

T1 sequence (P67774 whole entry): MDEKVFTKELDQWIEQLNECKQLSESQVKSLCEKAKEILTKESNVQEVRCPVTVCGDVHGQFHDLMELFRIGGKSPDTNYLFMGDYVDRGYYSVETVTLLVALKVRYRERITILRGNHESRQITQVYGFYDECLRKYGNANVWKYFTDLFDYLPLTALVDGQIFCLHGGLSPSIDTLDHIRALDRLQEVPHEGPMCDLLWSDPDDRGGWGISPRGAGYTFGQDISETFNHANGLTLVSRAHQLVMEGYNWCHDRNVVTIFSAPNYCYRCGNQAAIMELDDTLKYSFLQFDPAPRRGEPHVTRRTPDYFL

Row | Compound | IC50 [nM]
1 | O=C(O)c1cc(=O)c2c(OCC(O)COc3cccc4oc(C(=O)O)cc(=O)c34)cccc2o1 [cromoglycate] | ~1.7
2 | CCCc1c2oc(C(=O)O)cc(=O)c2cc2c(=O)cc(C(=O)O)n(CC)c12 [nedocromil] | ~0.65
